We go through five compounds from paper PMC6019134, “1,2,6-Thiadiazinones as Novel Narrow Spectrum Calcium/Calmodulin-Dependent Protein Kinase Kinase 2 (CaMKK2) Inhibitors” (Molecules : A Journal of Synthetic Chemistry and Natural …, 2018).

Holding throughout (test): DSF thermal shift, kinase panel
Common to all, as to assay type: binding
Holding throughout (conditions): 10 μM compound

Assay [1] deals with T1, BMXA (Homo sapiens, UniProt P51813).
T1 construct: purchased in-house (home-made panel, SGC-style construct names)
T1 sequence (P51813 1-675): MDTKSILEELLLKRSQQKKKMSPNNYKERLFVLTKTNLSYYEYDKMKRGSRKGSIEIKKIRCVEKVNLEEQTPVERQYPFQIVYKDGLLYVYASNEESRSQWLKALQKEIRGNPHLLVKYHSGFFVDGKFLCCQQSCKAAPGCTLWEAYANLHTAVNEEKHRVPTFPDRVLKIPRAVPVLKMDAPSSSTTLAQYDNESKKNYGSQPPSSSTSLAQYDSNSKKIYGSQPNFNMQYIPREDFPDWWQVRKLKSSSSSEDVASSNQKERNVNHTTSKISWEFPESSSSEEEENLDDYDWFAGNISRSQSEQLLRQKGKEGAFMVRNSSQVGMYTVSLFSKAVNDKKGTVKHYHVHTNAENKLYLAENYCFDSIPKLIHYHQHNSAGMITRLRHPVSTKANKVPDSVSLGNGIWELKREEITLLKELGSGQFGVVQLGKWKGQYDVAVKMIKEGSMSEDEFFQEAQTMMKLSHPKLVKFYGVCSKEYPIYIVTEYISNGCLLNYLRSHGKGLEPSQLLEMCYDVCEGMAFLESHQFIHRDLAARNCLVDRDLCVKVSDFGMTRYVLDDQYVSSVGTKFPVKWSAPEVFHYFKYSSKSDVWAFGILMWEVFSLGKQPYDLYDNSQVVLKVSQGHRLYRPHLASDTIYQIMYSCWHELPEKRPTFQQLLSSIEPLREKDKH
As to the method:
(§1) The corresponding dianilino-TDZs (1–5) were tested on a panel of 46 protein kinases representing the major kinome branches at a concentration of 10 μM using a Differential Scanning Fluorimetry (DSF). Only analogues 1–3 induced a significant (>2 °C) thermal shift when incubated with a subset of the proteins (Table 1).
(§2) Kinase selectivity assay—A home-made kinase panel was generated for the following enzymes: AAK1, BMP2K, BMX, BRAF, CAMK1D, CAMK1G, CAMKK1, CAMKK2B, CDC42BPA, CDK2, CDKL1, CHEK2, CLK1, CSNK1G1, CSNK1G3, CSNK2A1, DYRK1A, DYRK2A, EPHA2, GAK, GSG2, MAPK1, MAP2K7, MAPK14B, MAPK3, PHKG2, PIM1, PLK1, PKMYT1, PRPF4B, RPS6KA1A, RPS6KA5A, RPS6KA6A, SLK, SRPK1, SRPK2, STK3, STK6, STK10, STK17A, STK24, STK38L, TRIB2, TTK, VRK1 and VRK2. Proteins were produced in E. coli, purified in a Ni-chelate column, followed by overnight digestion using TEV protease (made in house with an N-terminal 6xHis tag) and dialysis to remove imidazole. To clear samples of uncleaved proteins and the TEV protease, samples were loaded on new Ni-chelate columns. The flow through was collected, concentrated and loaded to a HiLoad Superdex 200 16/600 column (GE Healthcare, Chicago, IL, USA) for final polishing and buffer exchange.
(§3) Starting from 100 µM protein stocks, our kinase panel enzymes were diluted to 1 µM in buffer 100 mM K2HPO4 pH 7.5 containing 150 mM NaCl, 10% glycerol and 5X dye (Applied Biosystems catalogue 4461806). The protein/dye mixture was transferred to a 384-well PCR microplate having 20 µL per well. Compounds in DMSO at 10 mM concentration were added in 20 nL volume, using a liquid handling device setup with a pin head, to make 10 µM compound concentration in the assay plate.
(§4) Protein thermal shift data was measured in a qPCR instrument (Applied Biosystems QuantStudio 6) programmed to equilibrate the plate at 25 °C for 5 min followed by ramping the temperature to 95 °C at a rate of 0.05 °C/s. Data was processed using Protein Thermal shift software (Applied Biosystems) by fitting experimental curves to a Boltzmann function to calculate differential thermal shifts (dTm) referenced to protein/dye in 0.2% DMSO.

The target in assay [2] is T2, CSNK1G3 (Homo sapiens, UniProt Q9Y6M4).
T2 construct: purchased in-house (home-made panel, SGC-style construct names)
As to the method:
as §1, §2, §3, §4

For assay [3], the target named is T3, TRIB2A (Homo sapiens, UniProt Q92519).
T3 construct: TEV-cleavable (cleaved yes); made in house; host or cells: E. coli
T3 sequence (Q92519 1-343): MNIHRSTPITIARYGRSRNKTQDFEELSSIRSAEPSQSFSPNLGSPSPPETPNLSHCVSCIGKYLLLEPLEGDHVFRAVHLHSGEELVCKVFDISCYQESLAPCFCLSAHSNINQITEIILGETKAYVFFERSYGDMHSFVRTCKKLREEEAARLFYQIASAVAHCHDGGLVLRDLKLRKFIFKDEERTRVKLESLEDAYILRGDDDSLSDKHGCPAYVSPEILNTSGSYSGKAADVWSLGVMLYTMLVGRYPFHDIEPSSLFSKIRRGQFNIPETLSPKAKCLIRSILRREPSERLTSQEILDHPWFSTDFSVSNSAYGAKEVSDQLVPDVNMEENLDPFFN
On the procedure: as §1, §2, §3, §4

In assay [4] the target is T4, AAK1 (Homo sapiens, UniProt Q2M2I8).
T4 construct: purchased in-house (home-made panel, SGC-style construct names)
As to the method: as §1, §2, §3, §4

Assay [5] has as its target T5, CHEK2 (Homo sapiens, UniProt O96017).
T5 construct: purchased in-house (home-made panel, SGC-style construct names)
As to the method:
as §1, §2, §3, §4

Assay [6] has as its target T6, PHKG2A (Homo sapiens, UniProt P15735).
T6 construct: purchased in-house (home-made panel, SGC-style construct names)
T6 sequence (P15735 1-406): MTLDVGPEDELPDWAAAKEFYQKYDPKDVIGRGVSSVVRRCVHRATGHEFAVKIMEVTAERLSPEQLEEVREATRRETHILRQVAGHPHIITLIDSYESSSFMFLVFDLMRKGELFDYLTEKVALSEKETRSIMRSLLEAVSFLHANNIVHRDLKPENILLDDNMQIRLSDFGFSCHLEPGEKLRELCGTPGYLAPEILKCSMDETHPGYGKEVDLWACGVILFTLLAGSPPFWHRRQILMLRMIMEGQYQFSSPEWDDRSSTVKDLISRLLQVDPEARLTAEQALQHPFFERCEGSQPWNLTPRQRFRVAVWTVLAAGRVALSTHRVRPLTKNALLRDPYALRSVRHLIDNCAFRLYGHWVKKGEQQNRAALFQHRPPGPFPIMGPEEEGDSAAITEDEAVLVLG
On the procedure:
as §1, §2, §3, §4

Assay [7] has as its target T7, STK10A (Homo sapiens, UniProt O94804).
T7 construct: TEV-cleavable (cleaved yes); made in house; host or cells: E. coli
On the procedure:
as §1, §2, §3, §4

Assay [8] concerns the target T8, PIM1A (Homo sapiens, UniProt P11309).
T8 construct: purchased in-house (home-made panel, SGC-style construct names)
On the procedure:
as §1, §2, §3, §4

The target in assay [9] is T9, SLKA (Homo sapiens, UniProt Q9H2G2).
T9 construct: purchased in-house (home-made panel, SGC-style construct names)
On the procedure: as §1, §2, §3, §4

Assay [10] has as its target T10, RPS6KA6A (Homo sapiens, UniProt Q9UK32).
T10 construct: purchased in-house (home-made panel, SGC-style construct names)
On the procedure: as §1, §2, §3, §4

T7 sequence (O94804 whole entry): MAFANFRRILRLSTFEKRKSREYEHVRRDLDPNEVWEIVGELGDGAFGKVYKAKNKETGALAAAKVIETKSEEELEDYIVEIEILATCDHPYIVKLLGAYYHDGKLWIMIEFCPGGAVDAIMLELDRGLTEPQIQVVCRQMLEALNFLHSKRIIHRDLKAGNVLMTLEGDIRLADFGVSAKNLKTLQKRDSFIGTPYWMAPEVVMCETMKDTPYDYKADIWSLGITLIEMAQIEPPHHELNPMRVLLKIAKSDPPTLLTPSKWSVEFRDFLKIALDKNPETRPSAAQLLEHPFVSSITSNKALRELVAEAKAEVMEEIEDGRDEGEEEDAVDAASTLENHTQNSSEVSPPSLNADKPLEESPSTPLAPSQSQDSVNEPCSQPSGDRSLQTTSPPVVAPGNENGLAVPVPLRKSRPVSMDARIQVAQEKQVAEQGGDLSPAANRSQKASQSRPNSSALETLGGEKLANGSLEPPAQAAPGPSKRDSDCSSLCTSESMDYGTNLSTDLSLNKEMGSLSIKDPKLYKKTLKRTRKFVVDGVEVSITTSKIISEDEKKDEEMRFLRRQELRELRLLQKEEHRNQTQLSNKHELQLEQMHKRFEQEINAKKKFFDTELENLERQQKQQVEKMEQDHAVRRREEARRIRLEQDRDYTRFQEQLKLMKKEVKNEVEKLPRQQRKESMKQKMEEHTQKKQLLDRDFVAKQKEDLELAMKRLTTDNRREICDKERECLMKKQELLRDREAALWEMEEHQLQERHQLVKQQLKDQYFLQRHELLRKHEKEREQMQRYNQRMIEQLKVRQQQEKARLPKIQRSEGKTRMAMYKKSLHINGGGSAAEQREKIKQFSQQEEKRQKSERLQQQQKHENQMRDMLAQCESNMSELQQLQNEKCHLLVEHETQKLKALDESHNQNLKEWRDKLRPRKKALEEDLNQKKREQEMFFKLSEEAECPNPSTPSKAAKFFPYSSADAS
T5 sequence (O96017 whole entry): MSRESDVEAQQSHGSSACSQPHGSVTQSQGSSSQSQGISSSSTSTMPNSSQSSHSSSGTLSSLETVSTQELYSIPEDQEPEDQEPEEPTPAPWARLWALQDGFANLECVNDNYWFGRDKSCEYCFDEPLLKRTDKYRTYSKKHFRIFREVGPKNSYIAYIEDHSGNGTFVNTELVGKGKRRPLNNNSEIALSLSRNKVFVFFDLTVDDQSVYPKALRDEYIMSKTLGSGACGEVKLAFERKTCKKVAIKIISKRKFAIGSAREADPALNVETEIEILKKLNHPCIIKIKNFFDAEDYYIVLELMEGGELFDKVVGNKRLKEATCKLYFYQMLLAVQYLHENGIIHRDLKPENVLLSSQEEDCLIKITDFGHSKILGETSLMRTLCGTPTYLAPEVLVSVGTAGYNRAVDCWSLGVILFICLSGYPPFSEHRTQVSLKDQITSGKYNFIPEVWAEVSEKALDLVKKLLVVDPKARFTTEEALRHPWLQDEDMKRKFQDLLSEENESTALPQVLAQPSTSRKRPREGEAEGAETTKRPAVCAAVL
T8 sequence (P11309 whole entry): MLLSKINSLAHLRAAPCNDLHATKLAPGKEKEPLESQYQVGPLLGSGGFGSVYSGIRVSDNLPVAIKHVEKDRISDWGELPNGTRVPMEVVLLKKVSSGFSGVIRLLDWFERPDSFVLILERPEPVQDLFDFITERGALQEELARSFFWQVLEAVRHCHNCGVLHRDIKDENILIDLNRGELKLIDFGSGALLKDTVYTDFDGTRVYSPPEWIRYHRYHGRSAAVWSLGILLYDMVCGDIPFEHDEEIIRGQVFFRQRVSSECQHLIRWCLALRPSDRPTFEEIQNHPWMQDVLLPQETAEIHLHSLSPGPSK
T9 sequence (Q9H2G2 whole entry): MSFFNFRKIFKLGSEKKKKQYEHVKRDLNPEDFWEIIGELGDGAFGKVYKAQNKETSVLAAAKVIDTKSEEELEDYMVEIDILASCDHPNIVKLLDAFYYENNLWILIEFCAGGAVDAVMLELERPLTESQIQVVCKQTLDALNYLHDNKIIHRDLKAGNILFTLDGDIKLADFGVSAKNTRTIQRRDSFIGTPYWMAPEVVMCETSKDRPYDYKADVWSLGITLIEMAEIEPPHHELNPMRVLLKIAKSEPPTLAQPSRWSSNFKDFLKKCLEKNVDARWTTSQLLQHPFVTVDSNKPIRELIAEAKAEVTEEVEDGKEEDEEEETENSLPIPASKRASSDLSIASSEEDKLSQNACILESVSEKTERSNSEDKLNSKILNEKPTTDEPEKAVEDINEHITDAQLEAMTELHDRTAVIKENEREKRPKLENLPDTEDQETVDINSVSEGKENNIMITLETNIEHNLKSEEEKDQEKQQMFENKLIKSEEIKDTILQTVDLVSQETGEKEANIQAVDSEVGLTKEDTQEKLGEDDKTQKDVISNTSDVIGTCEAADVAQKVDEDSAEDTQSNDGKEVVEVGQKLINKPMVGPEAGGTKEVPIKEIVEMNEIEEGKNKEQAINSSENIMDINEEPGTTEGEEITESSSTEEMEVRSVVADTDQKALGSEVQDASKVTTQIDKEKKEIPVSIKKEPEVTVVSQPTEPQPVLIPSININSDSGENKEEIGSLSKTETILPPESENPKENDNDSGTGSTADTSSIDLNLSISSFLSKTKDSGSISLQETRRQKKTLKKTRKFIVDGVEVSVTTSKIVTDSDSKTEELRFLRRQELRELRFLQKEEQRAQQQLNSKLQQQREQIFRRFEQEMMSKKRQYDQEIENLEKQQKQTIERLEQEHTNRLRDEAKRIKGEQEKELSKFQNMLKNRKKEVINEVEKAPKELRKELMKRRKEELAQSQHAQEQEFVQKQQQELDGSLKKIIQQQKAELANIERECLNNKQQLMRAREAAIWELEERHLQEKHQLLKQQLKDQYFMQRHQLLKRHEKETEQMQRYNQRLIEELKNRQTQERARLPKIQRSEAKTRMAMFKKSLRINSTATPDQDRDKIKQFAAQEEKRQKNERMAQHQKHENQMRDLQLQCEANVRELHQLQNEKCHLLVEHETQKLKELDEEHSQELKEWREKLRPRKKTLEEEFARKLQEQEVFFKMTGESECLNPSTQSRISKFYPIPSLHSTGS
T10 sequence (Q9UK32 whole entry): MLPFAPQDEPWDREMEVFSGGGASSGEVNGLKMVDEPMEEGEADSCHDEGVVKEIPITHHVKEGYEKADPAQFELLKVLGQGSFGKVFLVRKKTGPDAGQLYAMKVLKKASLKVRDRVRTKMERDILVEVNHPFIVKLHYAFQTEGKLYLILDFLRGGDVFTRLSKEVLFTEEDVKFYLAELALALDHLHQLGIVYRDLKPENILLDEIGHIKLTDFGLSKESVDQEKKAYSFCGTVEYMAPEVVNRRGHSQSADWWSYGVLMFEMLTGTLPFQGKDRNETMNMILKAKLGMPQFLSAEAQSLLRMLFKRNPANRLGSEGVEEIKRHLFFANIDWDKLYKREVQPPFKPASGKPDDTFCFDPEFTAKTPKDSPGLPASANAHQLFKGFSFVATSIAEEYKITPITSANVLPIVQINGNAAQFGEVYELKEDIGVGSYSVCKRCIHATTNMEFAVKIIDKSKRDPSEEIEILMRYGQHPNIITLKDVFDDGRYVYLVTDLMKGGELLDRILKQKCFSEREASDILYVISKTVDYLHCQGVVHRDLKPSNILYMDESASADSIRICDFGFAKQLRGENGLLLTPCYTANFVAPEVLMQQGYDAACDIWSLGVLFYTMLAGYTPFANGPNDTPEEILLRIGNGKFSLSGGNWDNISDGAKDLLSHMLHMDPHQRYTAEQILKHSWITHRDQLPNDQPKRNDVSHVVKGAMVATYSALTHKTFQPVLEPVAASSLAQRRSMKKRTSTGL
T2 sequence (Q9Y6M4 whole entry): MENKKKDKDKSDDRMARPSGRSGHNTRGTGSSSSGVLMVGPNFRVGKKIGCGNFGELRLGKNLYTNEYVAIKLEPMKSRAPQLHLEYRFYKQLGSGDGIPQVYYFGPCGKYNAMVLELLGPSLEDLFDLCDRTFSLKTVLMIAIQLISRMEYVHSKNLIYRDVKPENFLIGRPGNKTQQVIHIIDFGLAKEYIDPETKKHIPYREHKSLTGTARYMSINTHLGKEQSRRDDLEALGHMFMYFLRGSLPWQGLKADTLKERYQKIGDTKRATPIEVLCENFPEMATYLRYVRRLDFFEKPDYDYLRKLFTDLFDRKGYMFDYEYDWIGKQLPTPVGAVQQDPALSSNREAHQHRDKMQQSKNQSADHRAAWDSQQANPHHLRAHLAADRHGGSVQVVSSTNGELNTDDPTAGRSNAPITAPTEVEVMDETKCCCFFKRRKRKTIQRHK

Consider `CNC(=O)c1ccccc1Nc1nsnc(Nc2cccc(CS(C)(=O)=O)c2)c1=O` [Compound 4, N-Methyl-2-([5-({3-[(methylsulfonyl)methyl]phenyl}amino)-4-oxo-4H-1,2,6-thiadiazin-3-yl]-amino}-benzamide], for which the ΔTm at 10 µM in assay [1] is 0 °C; in assay [2], -0.1 °C; in assay [3], roughly 1 °C; in [4], -0.4 °C; in assay [5] it was 0.6 °C; in assay [6], 0.2 °C. The ΔTm at 10 µM in [7] was 0.2 °C; in assay [8] it was -0.7 °C; in assay [9] it was -0.8 °C; in [10], -0.3 °C. The ΔTm in assay [3] (10 µM) was 1,0 °C.
Regarding `Cc1ccc(Nc2nsnc(Nc3cccc(C(N)=O)c3)c2=O)cc1O` [Compound 1, 3-({5-[(3-Hydroxy-4-methylphenyl)amino]-4-oxo-4H-1,2,6-thiadiazin-3-yl}amino)benzamide], the ΔTm at 10 µM in assay [1] stood at 0.1 °C; in assay [2] it was 0 °C; in [3], 2.5 °C; in assay [4], 0.6 °C; in assay [5] it was 0.6 °C; in assay [6], 0.7 °C. Also, the ΔTm at 10 µM in [7] is 0.5 °C; in assay [8], 1 °C; in assay [9], -0.6 °C; in [10] it was 0.5 °C.
Regarding `CNC(=O)c1ccccc1Nc1nsnc(Nc2ccc(N3CCOCC3)cc2)c1=O` [Compound 5, N-Methyl-2-({5-[(4-morpholinophenyl)amino]-4-oxo-4H-1,2,6-thiadiazin-3-yl}amino)benzamide], the ΔTm at 10 µM was 0 °C in assay [1]; 0 °C in assay [2]; roughly 1 °C in [3]; -0.4 °C in assay [4]; 0.8 °C in [5]; 0.2 °C in assay [6]. Also, the shift in melting temperature (ΔTm) at 10 µM in assay [7] is -0.4 °C; in assay [8], -0.2 °C; in assay [9] it was -0.7 °C; in assay [10], -0.6 °C.
As to `Cc1ccc(Nc2nsnc(Nc3ccc4c(c3)CS(=O)(=O)C4)c2=O)cc1O` [Compound 3, 3-[(2,2-Dioxido-1,3-dihydrobenzo[c]thiophen-5-yl)amino]-5-[(3-hydroxy-4-methylphenyl)amino]-4H-1,2,6-thiadiazin-4-one], the ΔTm at 10 µM in assay [1] was 0 °C; in [2] it was -0.2 °C; in assay [3], 4.9 °C; in assay [4], 0.6 °C; in [5], 1.6 °C; in assay [6] it was 1.6 °C. For the same compound, the ΔTm at 10 µM is 2.2 °C in assay [7], 4.1 °C in [8], -0.2 °C in assay [9] and 0.9 °C in assay [10].
Consider `Cc1ccc(Nc2nsnc(Nc3ccc(C(N)=O)cc3)c2=O)cc1O` [Compound 2, 4-({5-[(3-Hydroxy-4-methylphenyl)amino]-4-oxo-4H-1,2,6-thiadiazin-3-yl}amino)benzamide], for which the ΔTm at 10 µM is -0.1 °C in [1]; 0.1 °C in assay [2]; 1.5 °C in assay [4]; 3.1 °C in [5]; 2.4 °C in assay [6]; 0.9 °C in assay [7]. The ΔTm at 10 µM in assay [8] is 3.5 °C; in assay [9], -0.1 °C; in [10] it was 2.6 °C.
